The term IC50 denotes the concentration at which inhibition is half-maximal.

The structures appear in SMILES notation.

Test [1] concerns the target T1, T. gondii DHFR (Toxoplasma gondii, UniProt Q07422).
T1 sequence (Q07422 1-610): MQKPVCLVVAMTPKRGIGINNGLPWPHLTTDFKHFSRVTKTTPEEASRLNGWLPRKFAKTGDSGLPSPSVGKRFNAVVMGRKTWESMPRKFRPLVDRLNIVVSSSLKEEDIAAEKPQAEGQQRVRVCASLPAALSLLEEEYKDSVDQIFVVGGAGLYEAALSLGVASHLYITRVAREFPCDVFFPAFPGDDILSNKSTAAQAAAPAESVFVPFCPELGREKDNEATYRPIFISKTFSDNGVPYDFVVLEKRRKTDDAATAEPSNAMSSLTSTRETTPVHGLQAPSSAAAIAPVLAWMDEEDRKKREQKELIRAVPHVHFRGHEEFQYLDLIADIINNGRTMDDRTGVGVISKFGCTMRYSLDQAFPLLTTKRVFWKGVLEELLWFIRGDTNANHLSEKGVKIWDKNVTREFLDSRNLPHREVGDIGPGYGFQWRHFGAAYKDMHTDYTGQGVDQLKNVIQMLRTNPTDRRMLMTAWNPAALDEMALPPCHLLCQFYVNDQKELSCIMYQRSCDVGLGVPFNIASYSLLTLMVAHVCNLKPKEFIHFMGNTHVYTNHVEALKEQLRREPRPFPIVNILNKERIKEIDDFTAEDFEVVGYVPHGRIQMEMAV
Type of test: biochemical. The conditions noted are these: compounds 3a-k.

A further test concerns the target T2, M. avium DHFR (Mycobacterium avium, UniProt O30463).
T2 sequence (O30463 1-181): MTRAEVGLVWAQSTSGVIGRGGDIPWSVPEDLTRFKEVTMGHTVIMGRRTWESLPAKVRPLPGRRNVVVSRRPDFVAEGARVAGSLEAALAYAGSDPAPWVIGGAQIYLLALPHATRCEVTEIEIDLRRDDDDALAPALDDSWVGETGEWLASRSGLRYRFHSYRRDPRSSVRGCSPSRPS
As to the kind of experiment: Inhibition of M. avium DHFR (literature assay). To be noted: compounds 3a-k. Type of test: biochemical.

The target of a further test is T3, rat liver DHFR (Rattus norvegicus, UniProt Q920D2).
T3 sequence (Q920D2 1-187): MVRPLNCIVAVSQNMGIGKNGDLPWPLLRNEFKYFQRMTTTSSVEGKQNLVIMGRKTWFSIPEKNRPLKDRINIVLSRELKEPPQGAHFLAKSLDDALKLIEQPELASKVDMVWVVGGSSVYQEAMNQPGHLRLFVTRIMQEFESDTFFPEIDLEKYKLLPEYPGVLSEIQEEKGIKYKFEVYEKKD
As to the kind of experiment: Inhibition of rat liver DHFR (literature assay). To be noted: read-out: IC50 (μM) Rat liver, compounds 3a-k.

A further test deals with E. coli DHFR (Escherichia coli, UniProt P0ABQ4). The conditions noted are these: Kuyper et al., J. Med. Chem. 1985; cited from earlier work.
Test [2] deals with T1, T. gondii DHFR. The conditions noted are these: reported in the literature; cited from earlier work.

For `CCCCCOc1ccc(OC)c(Cc2cnc(N)nc2N)c1` [Compound 3a, 2,4-Diamino-5-(2-methoxy-5-pentyloxybenzyl)pyrimidine], the IC50 against T. gondii DHFR [1] is 6.5 µM; at M. avium DHFR, 0.31 µM; at rat liver DHFR it was 44 µM.
For the molecule `CCCCCCOc1ccc(OC)c(Cc2cnc(N)nc2N)c1` [Compound 3b, 2,4-Diamino-5-(2-methoxy-5-hexyloxybenzyl)pyrimidine], the IC50 amounted to 9.2 µM against T. gondii DHFR [1], 0.39 µM on M. avium DHFR and 29 µM on rat liver DHFR.
Taken in the same sequence, the figures for `CCCCCCCOc1ccc(OC)c(Cc2cnc(N)nc2N)c1` [Compound 3c, 2,4-Diamino-5-(2-methoxy-5-heptyloxybenzyl)pyrimidine] were 5 µM, 0.89 µM and 11 µM.
Turning to `CCCCCCCCOc1ccc(OC)c(Cc2cnc(N)nc2N)c1` [Compound 3d, 2,4-Diamino-5-(2-methoxy-5-octyloxybenzyl)pyrimidine], the IC50 turned out to be 15 µM at T. gondii DHFR [1] and 30 µM at rat liver DHFR.
For `CCCCCCCCCOc1ccc(OC)c(Cc2cnc(N)nc2N)c1` [Compound 3e, 2,4-Diamino-5-(2-methoxy-5-nonyloxybenzyl)pyrimidine], the IC50 was 32 µM on T. gondii DHFR [1], 32 µM on M. avium DHFR and 86 µM on rat liver DHFR.
Consider `COc1ccc(OCCCC(=O)O)cc1Cc1cnc(N)nc1N` [Compound 3f], for which the IC50 against T. gondii DHFR [1] amounted to 0.18 µM; on M. avium DHFR, 0.0048 µM; on rat liver DHFR, 2.6 µM.
`COc1ccc(OCCCCCC(=O)O)cc1Cc1cnc(N)nc1N` [Compound 3h]: the IC50 turned out to be 0.48 µM against T. gondii DHFR [1], 0.15 µM against M. avium DHFR and 17 µM on rat liver DHFR.
Take `COc1ccc(OCCCCCCC(=O)O)cc1Cc1cnc(N)nc1N` [Compound 3i]: the values for the IC50 at M. avium DHFR and on rat liver DHFR were 0.19 µM and 12 µM, respectively.
Consider `COc1ccc(OCCCCCCCC(=O)O)cc1Cc1cnc(N)nc1N` [Compound 3j], for which the IC50 was determined as 0.36 µM against T. gondii DHFR [1], 0.13 µM on M. avium DHFR and 12 µM at rat liver DHFR.
`COc1ccc(OCCCCCCCCC(=O)O)cc1Cc1cnc(N)nc1N` [Compound 3k]: the results for the IC50 at T. gondii DHFR [1] and on rat liver DHFR were 0.43 µM and 12 µM, respectively.
For the molecule `COc1cc(Cc2cnc(N)nc2N)cc(OCCCCCC(=O)O)c1OC` [Compound 18], the “Ki E. coli DHFR” value at E. coli DHFR is “highest affinity”.
Regarding `CCOc1cc(Cc2cnc(N)nc2N)cc(OCC)c1-n1cccc1` [Compound 19, epiroprim], the “selectivity T. gondii versus rat liver DHFR” value on T. gondii DHFR [2] is 155.

Source of the values: patent US7119095B2, “Pharmaceutically active compounds and methods of use thereof” (Dana Farber Cancer Institute, priority 2001, dated 2006).
